Results taken from PubChem BioAssay (NCI).
“And” between values parts separate entries of the source, which are not always exact repeats. Identical values can stand only once.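 Method: 48-hour compound exposure of cells in 96-well plates, five concentrations, linear interpolation of endpoints. GI50 is the concentration that inhibits growth by half. At the TGI there is no net growth.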

Key:
Test in all cases: NCI tumour cell line growth inhibition, 48 h
EKVX NSCLC = tested on: EKVX NSCLC
HCT-116 colon = tested on: HCT-116 colon
HCT-15 colon = tested on: HCT-15 colon
HOP-92 NSCLC = tested on: HOP-92 NSCLC
HS 578T breast = tested on: HS 578T breast
K-562 leukemia = tested on: K-562 leukemia
NCI-H226 lung = tested on: NCI-H226 lung
SK-OV-3 ovarian = tested on: SK-OV-3 ovarian
U251 CNS = tested on: U251 CNS
UACC-257 melanoma = tested on: UACC-257 melanoma

Structure (SMILES)	GI50 (EKVX NSCLC) [µM]	TGI (EKVX NSCLC) [µM]	GI50 (HCT-116 colon) [µM]	TGI (HCT-116 colon) [µM]	GI50 (HCT-15 colon)	TGI (HCT-15 colon) [µM]	GI50 (HOP-92 NSCLC)	TGI (HOP-92 NSCLC)	GI50 (HS 578T breast) [µM]	TGI (HS 578T breast) [µM]	GI50 (K-562 leukemia) [µM]	TGI (K-562 leukemia) [µM]	GI50 (NCI-H226 lung) [µM]	TGI (NCI-H226 lung) [µM]	GI50 (SK-OV-3 ovarian)	TGI (SK-OV-3 ovarian) [µM]	GI50 (U251 CNS) [µM]	TGI (U251 CNS) [µM]	GI50 (UACC-257 melanoma)	TGI (UACC-257 melanoma) [µM]
CCN(CC)CCCC(C)Nc1ccnc2cc(Cl)c(SCc3ccccc3)cc12 (stereo not drawn)	1.93	6.75	0.516	1.73	0.417 µM	1.63	1.14 µM	3.2 µM	1.97	5.73	0.266	0.702	2.71	8.48	1.93 µM	3.69	1.08	2.39	0.781 µM	2.11
COc1cccc(-c2cc(NCc3ccc4c(c3)OCO4)nc(N)n2)c1	3.33	52.3	0.0473	11.6	0.0533 µM	13.9	4.04 µM	20.5 µM	0.0505	27.6	0.041	> 34	11.7	32.5	0.0526 µM	0.583	0.0552	11.2	–	–
COc1ccc(OC)c(/C=C/c2cnnc3ccccc23)c1	–	> 10	–	> 10	–	> 10	–	> 10 µM	–	7.76	–	> 10	–	> 10	–	> 10	–	> 10	–	> 10
Cc1cccc2c(=O)c3c(sc12)c(NCCN)nc1ccccc13	0.815	1.71	0.759	1.43	0.821 µM	1.58	0.691 µM	2.45 µM	1.5	4.78	0.827	1.95	0.904	2.33	3.17 µM	9.9	0.84	1.59	0.966 µM	1.99
CCN1CCN(Cc2ccc3cc(C(=O)Nc4cc(NC(=O)c5ccc6c(c5)OCCO6)ccc4F)ccc3n2)CC1	0.112	1.79	0.0354	13	0.0376 µM	2.25	0.0555 µM	0.557 µM	0.0329	0.308	0.0505	14.5	–	3.45	0.0341 µM	1.14	0.0464	11.4	0.133 µM	10.5
CCOC(=O)c1c2c(n3cccc(F)c13)C(=O)c1ncccc1C2=O	1.07	15.8	0.317	3.91	0.0247 µM	12.2	2.22 µM	9.24 µM	0.0362	25.6	0.357	> 100	0.51	5.11	0.223 µM	16.3	0.0411	1.39	0.849 µM	6.37
CC(=O)O[C@@H]1CC(=O)O[C@@H]2C[C@@H](CC/C(Cl)=C/C/C=C\1C)O[C@@H]2CO	> 15	> 25	> 25	> 25	> 25 µM	> 25	> 25 µM	> 25 µM	> 25	> 25	> 25	> 25	> 25	> 25	> 25 µM	> 25	> 25	> 25	> 25 µM	> 25
O=C(O)C#Cc1ccc([N+](=O)[O-])cc1	–	> 100	–	> 100	–	> 100	–	> 100 µM	–	> 100	–	> 100	–	> 100	–	> 100	–	> 100	–	> 100
COc1ccc(OC)c2c3c(ncc12)-c1cc2c(cc1C3)OCO2	93.4	> 100	0.249	> 100	3.87 µM	> 100	> 100 µM	> 100 µM	7.01	62.1	24.6	> 100	–	–	> 100 µM	> 100	0.209	3.31	38.5 µM	> 100
CC1=C(C(=O)Nc2ccc(Cl)c(Cl)c2)C(c2cccc(O)c2)NC(=S)N1 (stereo not drawn)	9.38	21.4	18.1	> 50	21.8 µM	> 50	13.6 µM	35.2 µM	9.5	24.9	10.8	37.3	12	30.8	10 µM	20.4	8.82	18.1	12.5 µM	> 50
COc1ccc2cc(C(=O)/C=C/c3ccccc3OC)ccc2c1	17.5	58.5	1.4	6.5	1.67 µM	14.3	> 22.6 µM	> 50.4 µM	4.18	98.9	0.669	–	3.24	18.7	12.7 µM	> 100	4.33	15.6	9.78 µM	27.9
COC(=O)C12OCC34C(CC5C(C)=CC(=O)C(O)C5(C)C3C(O)C1O)OC(=O)C(OC(=O)CC(C)C)C24 (stereo not drawn)	0.0612	–	–	–	0.0565 µM and 0.05 µM	–	0.0442 µM and 0.05 µM	0.0174 µM and 0.119 µM and 0.0651 µM	–	0.000948	–	–	< 0.0345	–	0.3 µM and 0.05 µM	–	< 0.0342	–	0.0788 µM and 0.05 µM	–
COc1ccc2c(c1)c(=O)oc1cc(OC/C(=N\O)c3ccc(F)cc3)ccc12	30.2	> 100	14.2	28	20.5 µM	61.2	24.9 µM	72.2 µM	27	75.6	25.6	> 100	37	> 100	30.4 µM	> 100	20.2	48.1	25.4 µM	91.1
